Drawing on EP0857177B1, “PROCESS FOR THE PREPARATION OF A SINGLE CHAIN FV ANTIBODY FRAGMENT” (Novartis AG, priority 1995, dated 1997), this text covers Kd for 1 molecule.

This assay relates to anti-phOx-scFv (αphOx15-scFv with c-myc tag), purified monomeric, expressed in Sf9 insect cells. In words: Surface plasmon resonance (BIAcore) measurement of the monovalent interaction between immobilised scFv and phOx. The class given is binding. Particulars: monomeric anti-phOx-scFv amine-coupled to CM5 sensor chip (2160 RU); phOx offered as analyte phOx20.5BSA in HBS pH 7.4; BSA background RU subtracted; derived from differential RU at different phOx concentrations; error of 12.6% for the slope. How it is done: A second independent assay is employed to confirm the low affinity of the monovalent interaction between anti-phOx-scFv and phOx. Surface plasmon resonance signals (Kretschmann, E. and Raether, H. (1968) Z. Naturforsch. 23a, 2135-2136; Liedberg, et al., (1983) Sensors and Actuators 4, 299-304) are recorded with a BlAcore machine (Pharmacia Biosensor AB; Jönsson, et al., (1991) BioTechniques 11, 620-627; Chaiken, et al., (1992) Anal. Biochem. 201, 197-210). Purified monomeric anti-phOx-scFv at a concentration of 40 µg/ml in 5 mM maionic acid pH 6.0 / 0.05% [v/v] Tween-20 is coupled to a CM5 sensor chip using the Amine Coupling Kit (Pharmacia) as described earlier (Johnsson, et al., (1991) Anal. Biochem. 198, 268-277). Via amino groups, 2160 RU of the purified monomeric anti-phOx-scFv is immobilised to the sensor chip (i.e., about 2 ng/mm^2 chip surface; Stenberg, et al., (1991) J. Colloid Interface Sci. 143, 513-526).The activation time is adjusted to 7 min at a flow rate of 5 µl/min. For immobilisation 35 µl of the scFv sample are injected to the chip at the same flow rate. […]
Since a notable background binding of BSA to the modified chip is observed, it is indispensable to record the scFv binding events for both analytes phOx20.5BSA and BSA. […] KD can be derived from the differential RU measured at different phOx concentrations before dissociation is initiated.
In general terms: Surface plasmon resonance follows binding to a sensor surface in real time, without labels.

Molecules are shown by their SMILES.

As for `CCO/C=C1/N=C(c2ccccc2)OC1=O` [phOx], the Kd is 84.7 µM. This lies in the double-digit micromolar range.

As a reminder, the Kd is a measure of binding affinity in units of concentration. Low readings indicate tighter binding, high ones weaker binding.
